Test results reported in patent publication EP1953147A1, “HETEROCYCLIC COMPOUND AND MEDICINAL APPLICATION THEREOF” (priority 2005, dated 2007).

Tested on: ΔG/SEAP/HCV E1E2
Assay: Effect of test substance on cell infection with HCV pseudotype virus (SEAP reporter assay in HepG2 cells)
Format: cell-based
Conditions: Hepatitis C virus

SMILES	IC50 [nM]
O=C(O)c1ccc(-c2nn(-c3cc(N4CC[C@H](O)C4)ccc3C(F)(F)F)c(=O)c3c2CCC3)cc1 [Example 80, 4-{3-[5-((S)-3-hydroxy-pyrrolidin-1-yl)-2-trifluoromethyl-phenyl]-4-oxo-4,5,6,7-tetrahydro-3H-cyclopenta[d]pyridazin-1-yl}-benzoic acid]	100 to 10000
COc1cc(OC)cc(-c2nn(-c3cc(NCc4ccccc4)ccc3C(F)(F)F)c(=O)c3c2CCC3)c1 [Example 135, 2-(5-benzylamino-2-trifluoromethyl-phenyl)-4-(3,5-dimethoxy-phenyl)-2,5,6,7-tetrahydro-cyclopenta[d]pyridazin-1-one]	100 to 10000
COc1cc(OC)cc(-c2nn(-c3cc(CO)ccc3C(F)(F)F)c(=O)c3c2CCC3)c1 [Example 149, 4-(3,5-dimethoxy-phenyl)-2-(5-hydroxymethyl-2-trifluoromethyl-phenyl)-2,5,6,7-tetrahydro-cyclopenta[d]pyridazin-1-one]	< 100
COc1cc(OC)cc(-c2nn(-c3cc(NCCCO)ccc3C(F)(F)F)c(=O)c3c2CCC3)c1 [Example 130, 4-(3,5-dimethoxy-phenyl)-2-[5-(3-hydroxy-propylamino)-2-trifluoromethyl-phenyl]-2,5,6,7-tetrahydro-cyclopenta[d]pyridazin-1-one]	< 100
COc1cc(OC)cc(-c2nn(-c3cc(Nc4ccccc4)ccc3C(F)(F)F)c(=O)c3c2CCC3)c1 [Example 134, 4-(3,5-dimethoxy-phenyl)-2-(5-phenylamino-2-trifluoromethyl-phenyl)-2,5,6,7-tetrahydro-cyclopenta[d]pyridazin-1-one]	100 to 10000
COc1cc(OC)cc(-c2nn(-c3cc(NCC(CO)CO)ccc3C(F)(F)F)c(=O)c3c2CCN3CCO)c1 [Example 1-43, 4-(3,5-dimethoxy-phenyl)-1-(2-hydroxy-ethyl)-6-[5-(3-hydroxy-2-hydroxymethyl-propylamino)-2-trifluoromethyl-phenyl]-1,2,3,6-tetrahydro-pyrrolo[2,3-d]pyridazin-7-one]	< 100
O=c1c2c(c(-c3ccccc3)nn1-c1cc(N3CC[C@H](O)C3)ccc1C(F)(F)F)CCC2 [Example 66, 2-[5-((S)-3-hydroxy-pyrrolidin-1-yl)-2-trifluoromethyl-phenyl]-4-phenyl-2,5,6,7-tetrahydro-cyclopenta[d]pyridazin-1-one]	< 100
COc1cc(C)cc(-c2nn(-c3cc(-c4cccnn4)ccc3C(F)(F)F)c(=O)c3c2CC(C)N3)c1 (centres unmarked) [Example 15, 4-(3-methoxy-5-methyl-phenyl)-2-methyl-6-(5-pyridazin-3-yl-2-trifluoromethyl-phenyl)-1,2,3,6-tetrahydro-pyrrolo[2,3-d]pyridazin-7-one]	< 100
COc1cc(OC)cc(-c2nn(-c3cc(N4CC[C@H](O)C4)ccc3C(F)(F)F)c(=O)c3c2CCN3C)c1 [Example 54, 4-(3,5-dimethoxy-phenyl)-6-[5-((S)-3-hydroxy-pyrrolidin-1-yl)-2-trifluoromethyl-phenyl]-1-methyl-1,2,3,6-tetrahydro-pyrrolo[2,3-d]pyridazin-7-one]	< 100
COc1ccc(-c2nn(-c3cc(N4CC[C@H](O)C4)ccc3C(F)(F)F)c(=O)c3c2CCC3)cc1 [Example 77, 2-[5-((S)-3-hydroxy-pyrrolidin-1-yl)-2-trifluoromethyl-phenyl]-4-(4-methoxy-phenyl)-2,5,6,7-tetrahydro-cyclopenta[d]pyridazin-1-one]	< 100
COc1cc(OC)cc(-c2nn(-c3ccc(Br)cc3C(F)(F)F)c(=O)c3c2CCC3)c1 [Example 106, 2-(4-bromo-2-trifluoromethyl-phenyl)-4-(3,5-dimethoxy-phenyl)-2,5,6,7-tetrahydro-cyclopenta[d]pyridazin-1-one]	100 to 10000
COc1cc(OC)cc(-c2nn(-c3cc(N4CC[C@H](O)C4)ccc3C(F)(F)F)c(=O)c3c2CCN3CCO)c1 [Example 29, 4-(3,5-dimethoxy-phenyl)-1-(2-hydroxy-ethyl)-6-[5-((S)-3-hydroxy-pyrrolidin-1-yl)-2-trifluoromethylphenyl]-1,2,3,6-tetrahydro-pyrrolo[2,3-d]pyridazin-7-one]	< 100
COc1cc(OC)cc(-c2nn(-c3cc(NCCC(=O)O)ccc3C(F)(F)F)c(=O)c3c2CCC3)c1 [Example 122, 3-{3-[4-(3,5-dimethoxy-phenyl)-1-oxo-1,5,6,7-tetrahydro-cyclopenta[d]pyridazin-2-yl]-4-trifluoromethyl-phenylamino}-propionic acid]	< 100
Cc1cccc(-c2nn(-c3cc(N4CC[C@H](O)C4)ccc3C(F)(F)F)c(=O)c3c2CCC3)c1 [Example 64, 2-[5-((S)-3-hydroxy-pyrrolidin-1-yl)-2-trifluoromethyl-phenyl]-4-m-tolyl-2,5,6,7-tetrahydro-cyclopenta[d]pyridazin-1-one]	< 100
COc1cc(OC)cc(-c2nn(-c3cc(NCCCC(N)=O)ccc3C(F)(F)F)c(=O)c3c2CCC3)c1 [Example 152, 4-{3-[4-(3,5-dimethoxy-phenyl)-1-oxo-1,5,6,7-tetrahydro-cyclopenta[d]pyridazin-2-yl]-4-trifluoromethyl-phenylamino}-butyramide]	< 100
CCOC(=O)N1CCc2c(-c3cc(O)cc(O)c3)nn(-c3cc(N4CC[C@H](O)C4)ccc3C(F)(F)F)c(=O)c21 [Example 61, 4-(3,5-dihydroxy-phenyl)-6-[5-((S)-3-hydroxy-pyrrolidin-1-yl)-2-trifluoromethyl-phenyl]-7-oxo-2,3,6,7-tetrahydro-pyrrolo[2,3-d]pyridazine-1-carboxylic acid ethyl ester]	100 to 10000
COc1cc(OC)cc(-c2nn(-c3cc(N(C)C)ccc3C(F)(F)F)c(=O)c3c2CCC3)c1 [Example 81, 4-(3,5-dimethoxy-phenyl)-2-(5-dimethylamino-2-trifluoromethyl-phenyl)-2,5,6,7-tetrahydro-cyclopenta[d]pyridazin-1-one]	< 100
COC(=O)c1ccc(C(F)(F)F)c(-n2nc(-c3cc(OC)cc(OC)c3)c3c(c2=O)CCC3)c1 [Example 1-9, methyl 3-[4-(3,5-dimethoxy-phenyl)-1-oxo-1,5,6,7-tetrahydro-cyclopenta[d]pyridazin-2-yl]-4-trifluoromethyl-benzoate]	< 100
NC(=O)c1cccc(-c2nn(-c3cc(N4CC[C@H](O)C4)ccc3C(F)(F)F)c(=O)c3c2CCC3)c1 [Example 98, 3-{3-[5-((S)-3-hydroxy-pyrrolidin-1-yl)-2-trifluoromethyl-phenyl]-4-oxo-4,5,6,7-tetrahydro-3H-cyclopenta[d]pyridazin-1-yl}-benzamide]	100 to 10000
CCC(O)CN1CCc2c(-c3cc(OC)cc(OC)c3)nn(-c3cc(N4CC[C@H](O)C4)ccc3C(F)(F)F)c(=O)c21 (stereo partly drawn) [Example 30, 4-(3,5-dimethoxy-phenyl)-1-(2-hydroxy-butyl)-6-[5-((S)-3-hydroxy-pyrrolidin-1-yl)-2-trifluoromethylphenyl]-1,2,3,6-tetrahydro-pyrrolo[2,3-d]pyridazin-7-one]	< 100
COc1cc(C)cc(-c2nn(-c3cc(N4CC[C@H](O)C4)ccc3C(F)(F)F)c(=O)c3c2CCN3)c1 [Example 14, 6-[5-((S)-3-hydroxy-pyrrolidin-1-yl)-2-trifluoromethyl-phenyl]-4-(3-methoxy-5-methyl-phenyl)-1,2,3,6-tetrahydro-pyrrolo[2,3-d]pyridazin-7-one]	< 100
COc1cc(C)cc(-c2nn(-c3cc(N4CC[C@H](O)C4)ccc3C(F)(F)F)c(=O)c3c2CCC3)c1 [Example 7, 2-[5-((S)-3-hydroxy-pyrrolidin-1-yl)-2-trifluoromethyl-phenyl]-4-(3-methoxy-5-methyl-phenyl)-2,5,6,7-tetrahydro-cyclopenta[d]pyridazin-1-one]	< 100
COc1cc(OC)cc(-c2nn(-c3cc(N4CC[C@H](O)C4)ccc3C(F)(F)F)c(=O)c3c2CCN3CC#N)c1 [Example 48, {4-(3,5-dimethoxy-phenyl)-6-[5-((S)-3-hydroxy-pyrrolidin-1-yl)-2-trifluoromethyl-phenyl]-7-oxo-2,3,6,7-tetrahydro-pyrrolo[2,3-d]pyridazin-1-yl}-acetonitrile]	< 100
COc1cc(OC)cc(-c2nn(-c3ccccc3Cl)c(=O)c3c2CCC3)c1 [Example 86, 2-(2-chloro-phenyl)-4-(3,5-dimethoxy-phenyl)-2,5,6,7-tetrahydro-cyclopenta[d]pyridazin-1-one]	100 to 10000
CCCCCCNC(=O)CN1CCc2c(-c3cc(OC)cc(OC)c3)nn(-c3cc(N4CC[C@H](O)C4)ccc3C(F)(F)F)c(=O)c21 [Example 35, 2-{4-(3,5-dimethoxy-phenyl)-6-[5-((S)-3-hydroxy-pyrrolidin-1-yl)-2-trifluoromethyl-phenyl]-7-oxo-2,3,6,7-tetrahydro-pyrrolo[2,3-d]pyridazin-1-yl}-N-hexyl-acetamide]	< 100
CCN(C)c1ccc(C(F)(F)F)c(-n2nc(-c3cc(OC)cc(OC)c3)c3c(c2=O)CCC3)c1 [Example 68, 4-(3,5-dimethoxy-phenyl)-2-[5-(ethyl-methylamino)-2-trifluoromethyl-phenyl]-2,5,6,7-tetrahydro-cyclopenta[d]pyridazin-1-one]	< 100
O=C(O)c1cccc(-c2nn(-c3cc(N4CC[C@H](O)C4)ccc3C(F)(F)F)c(=O)c3c2CCC3)c1 [Example 79, 3-{3-[5-((S)-3-hydroxy-pyrrolidin-1-yl)-2-trifluoromethyl-phenyl]-4-oxo-4,5,6,7-tetrahydro-3H-cyclopenta[d]pyridazin-1-yl}-benzoic acid]	100 to 10000
COc1cc(OC)cc(-c2nn(-c3cc(NCC4CCCC4)ccc3C(F)(F)F)c(=O)c3c2CCC3)c1 [Example 148, 2-[5-(cyclopentylmethyl-amino)-2-trifluoromethylphenyl]-4-(3,5-dimethoxy-phenyl)-2,5,6,7-tetrahydro-cyclopenta[d]pyridazin-1-one]	100 to 10000
COc1cc(OC)cc(-c2nn(-c3cc(N4CC[C@H](O)C4)ccc3C(F)(F)F)c(=O)c3c2CC(C)N3)c1 (stereo partly drawn) [Example 20, 4-(3,5-dimethoxy-phenyl)-6-[5-((S)-3-hydroxy-pyrrolidin-1-yl)-2-trifluoromethyl-phenyl]-2-methyl-1,2,3,6-tetrahydro-pyrrolo[2,3-d]pyridazin-7-one]	< 100
